For the test, the target named is T1, glucocorticoid receptor (GR) (Homo sapiens, UniProt P04150).
T1 construct: HeLa cells were transfected as above but also with plasmids for full length wild; expressed in transfected cells; host or cells: HeLa
T1 sequence (P04150 1-777): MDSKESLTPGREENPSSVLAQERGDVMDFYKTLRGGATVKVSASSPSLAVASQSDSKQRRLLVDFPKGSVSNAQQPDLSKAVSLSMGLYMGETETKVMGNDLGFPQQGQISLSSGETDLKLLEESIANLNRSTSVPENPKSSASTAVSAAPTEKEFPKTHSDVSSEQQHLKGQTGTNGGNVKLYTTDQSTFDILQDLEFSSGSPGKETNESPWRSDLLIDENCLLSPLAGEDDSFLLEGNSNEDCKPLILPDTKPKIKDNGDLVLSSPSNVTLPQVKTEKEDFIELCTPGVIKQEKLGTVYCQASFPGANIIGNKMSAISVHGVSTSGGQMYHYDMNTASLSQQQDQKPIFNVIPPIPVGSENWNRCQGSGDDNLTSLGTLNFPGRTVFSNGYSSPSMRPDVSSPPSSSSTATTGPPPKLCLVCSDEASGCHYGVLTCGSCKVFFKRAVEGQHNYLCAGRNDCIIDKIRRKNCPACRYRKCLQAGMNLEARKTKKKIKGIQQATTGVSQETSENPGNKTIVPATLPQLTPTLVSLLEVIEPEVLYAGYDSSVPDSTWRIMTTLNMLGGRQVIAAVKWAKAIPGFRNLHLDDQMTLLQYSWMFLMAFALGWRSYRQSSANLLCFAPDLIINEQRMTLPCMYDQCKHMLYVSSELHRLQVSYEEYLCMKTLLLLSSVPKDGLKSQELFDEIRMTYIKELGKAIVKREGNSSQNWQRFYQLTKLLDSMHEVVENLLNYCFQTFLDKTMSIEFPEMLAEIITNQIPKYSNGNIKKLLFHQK
Kind of test: PRE3X-TATA-Luc reporter in HeLa cells transfected with GR. To be noted: alone or + 32 nM Dex, 22 h. In kind it is cell-based. On the procedure: representative experiment. […]
receptor (AR, (B)), glucocorticoid receptor (GR, (C)), and the B-isoform of the progesterone receptor (PR-B, (D)). HeLa cells were transfected with the designated wild type receptor along with reporter gene PRE3X-TATA-Luc, which is promiscuously activated with known agonists specific for each receptor: R1881 for AR, dexamethasone (Dex) for GR, and medroxyprogesterone acetate (MPA) for PR-B. Each receptor was also dosed with one concentration of known antagonist for each receptor: 32 nM bicalutamide for AR, and 500 nM RU486 for GR and PR. Transfected cells were treated with the designated ligands for 22 hours and luciferase activity assayed. Shown are representative experiments, independently performed at least 3 times. Note that curves for agonists for each receptor were performed in separate experiments. Shown are means with SEM, normalized to percent of 32 nM R1881 for AR, 32 nM Dex for GR, and 0.5 µM MPA for PR-B (except with MPA alone, which was normalized to […]
either ERα or ERβ, and 85 ng ERE-3x-Luc, containing 3 copies of estrogen-response element (ERE) cloned into pGL4.23 luciferase reporter gene containing a minimal TATA promoter […]
hours (1.25% total final charcoal dextran stripped FBS). Bright Glo luciferase reagent (Promega) […]

Molecules are shown by their SMILES.

`CC1=C(c2ccc(O)cc2)[C@H](c2ccc(OCCN3CC[C@@H](C)C3)cc2)Oc2cc(O)ccc21` [OP-1074]: the “Agonist and antagonist activity on GR” value was “lacks agonist and antagonist activity”.

The values above are taken from PMC6006285, “Specific stereochemistry of OP-1074 disrupts estrogen receptor alpha helix 12 and confers pure antiestrogenic activity” (Nature Communications, 2018).
